Data on 23 compounds can be found in patent US11981686B2, “Urea compound having substituent” (DAIICHI SANKYO COMPANY, LIMITED, priority 2019, dated 2024).

Molecules are shown by their SMILES.

Sequence of SIRT6 enzyme (Q8N6T7 whole entry, species assumed): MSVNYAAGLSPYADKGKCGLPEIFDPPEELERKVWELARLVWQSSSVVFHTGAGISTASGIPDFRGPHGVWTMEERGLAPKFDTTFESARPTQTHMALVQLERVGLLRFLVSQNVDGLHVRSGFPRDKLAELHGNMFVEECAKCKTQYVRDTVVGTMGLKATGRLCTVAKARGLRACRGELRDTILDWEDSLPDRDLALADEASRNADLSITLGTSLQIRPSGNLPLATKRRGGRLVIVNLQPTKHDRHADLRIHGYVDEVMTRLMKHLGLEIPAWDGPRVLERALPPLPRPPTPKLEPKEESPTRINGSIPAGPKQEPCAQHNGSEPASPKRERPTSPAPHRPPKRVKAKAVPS

The test concerns the target SIRT6 enzyme (Homo sapiens, UniProt Q8N6T7). Description: Measurement of deacetylation activity (SIRT6, AlphaLISA, H3K9(Ac) peptide). Particulars: SIRT6 25 ng/mL, H3K9(Ac) biotin peptide 2 nM, NAD 10 μM, room temperature 30 minutes, duplicate. In kind it is biochemical. In short, it runs like this: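 Activation read as EC150, the concentration giving 150% activity relative to enzyme/no-enzyme DMSO controls, via variable-slope fit. Deacetylation of 2 nM biotinylated H3K9(Ac) peptide with 10 μM NAD+ by 25 ng/mL SIRT6 ran 30 min at room temperature, pH 8.0, then AlphaLISA detection of unmodified H3K9.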
(In general: In Alpha technology, singlet oxygen from a donor bead excites a nearby acceptor bead.)
`CNC(=O)Nc1nc2c(s1)C1COCC(C2)N1c1ncc(-c2cccc(C(F)F)c2)o1` (centres unmarked) [Example 14, N-(10-{5-[3-(difluoromethyl)phenyl]-1,3-oxazol-2-yl}-4,7,8,9-tetrahydro-5H-4,8-epiminooxocino[5,4-d][1,3]thiazol-2-yl)-N′-methylurea]: the “EC150 (the concentration of the compound showing a relative enzyme activity of 150%)” value is on record as 0.94 μm.

With `CC(C)(O)CNC(=O)Nc1nc2c(s1)[C@@H]1COC[C@H](C2)N1c1nc2cc(C(F)(F)F)ccc2o1` [Example 144, N-(2-hydroxy-2-methylpropyl)-N′-{(4S,8S)-10-[5-(trifluoromethyl)-1,3-benzoxazol-2-yl]-4,7,8,9-tetrahydro-5H-4,8-epiminooxocino[5,4-d][1,3]thiazol-2-yl}urea], the “EC150 (the concentration of the compound showing a relative enzyme activity of 150%)” value turned out to be 0.61 μm.

Regarding `COc1cc(-c2noc(N3C4COCC3c3sc(NC(=O)N[C@H](C)CO)nc3C4)n2)ccc1F` (stereo partly drawn) [Example 83, N-{10-[3-(4-fluoro-3-methoxyphenyl)-1,2,4-oxadiazol-5-yl]-4,7,8,9-tetrahydro-5H-4,8-epiminooxocino[5,4-d][1,3]thiazol-2-yl}-N′-[(2R)-1-hydroxypropan-2-yl]urea], the “EC150 (the concentration of the compound showing a relative enzyme activity of 150%)” value is on record as 0.68 μm.

Regarding `CNC(=O)Nc1nc2c(s1)[C@@H]1COC[C@H](C2)N1c1nnc(-c2cccc(C(C)C)c2)o1` [Example 119, N-methyl-N′-[(4S,8S)-10-{5-[3-(propan-2-yl)phenyl]-1,3,4-oxadiazol-2-yl}-4,7,8,9-tetrahydro-5H-4,8-epiminooxocino[5,4-d][1,3]thiazol-2-yl]urea], the “EC150 (the concentration of the compound showing a relative enzyme activity of 150%)” value was 2.2 μm.

For the compound `O=C(Nc1nc2c(s1)CN(c1nc(C3CC(F)(F)CCO3)no1)CC2)N[C@@H]1CCOC1` (stereo partly drawn) [Example 95, N-{5-[3-(4,4-difluorooxan-2-yl)-1,2,4-oxadiazol-5-yl]-4,5,6,7-tetrahydro[1,3]thiazolo[5,4-c]pyridin-2-yl}-N′-[(3R)-oxolan-3-yl]urea], the “EC150 (the concentration of the compound showing a relative enzyme activity of 150%)” value worked out at 2.2 μm.

Turning to `CC(C)(O)CNC(=O)Nc1nc2c(s1)[C@@H]1COC[C@H](C2)N1c1nc2cc(F)c(F)cc2o1` [Example 146, N-[(4S,8S)-10-(5,6-difluoro-1,3-benzoxazol-2-yl)-4,7,8,9-tetrahydro-5H-4,8-epiminooxocino[5,4-d][1,3]thiazol-2-yl]-N′-(2-hydroxy-2-methylpropyl)urea], the “EC150 (the concentration of the compound showing a relative enzyme activity of 150%)” value is 1.9 μm.

On to `C[C@H](CO)NC(=O)Nc1nc2c(s1)CN(c1nc3cc(S(C)(=O)=O)ccc3o1)C(C)(C)C2` [Example 74, N-[(2R)-1-hydroxypropan-2-yl]-N′-{5-[5-(methanesulfonyl)-1,3-benzoxazol-2-yl]-6,6-dimethyl-4,5,6,7-tetrahydro[1,3]thiazolo[5,4-c]pyridin-2-yl}urea], for which the “EC150 (the concentration of the compound showing a relative enzyme activity of 150%)” value turned out to be 0.68 μm.

With `C[C@H](CO)NC(=O)Nc1nc2c(s1)C1COCC(C2)N1c1nc(-c2cccc(C(F)F)c2)no1` (stereo partly drawn) [Example 124, N-(10-{3-[3-(difluoromethyl)phenyl]-1,2,4-oxadiazol-5-yl}-4,7,8,9-tetrahydro-5H-4,8-epiminooxocino[5,4-d][1,3]thiazol-2-yl)-N′-[(2R)-1-hydroxypropan-2-yl]urea], the “EC150 (the concentration of the compound showing a relative enzyme activity of 150%)” value is given as 0.39 μm.

`COCCCNC(=O)Nc1nc2c(s1)CN(c1nc(C3CCC(F)(F)CC3)no1)CC2` [Example 27, N-{5-[3-(4,4-difluorocyclohexyl)-1,2,4-oxadiazol-5-yl]-4,5,6,7-tetrahydro[1,3]thiazolo[5,4-c]pyridin-2-yl}-N′-(3-methoxypropyl)urea]: the “EC150 (the concentration of the compound showing a relative enzyme activity of 150%)” value came out at 2.1 μm.

As for `COc1cc(-c2noc(N3CCc4nc(NC(=O)NCc5nccn5C)sc4C3)n2)ccc1F` [Example 100, N-{5-[3-(4-fluoro-3-methoxyphenyl)-1,2,4-oxadiazol-5-yl]-4,5,6,7-tetrahydro[1,3]thiazolo[5,4-c]pyridin-2-yl}-N′-[(1-methyl-1H-imidazol-2-yl)methyl]urea], the “EC150 (the concentration of the compound showing a relative enzyme activity of 150%)” value is given as 2.6 μm.

Turning to `COc1cccc(-c2cnc(N3[C@@H]4COC[C@H]3c3sc(NC(=O)N[C@H]5CC[C@@H](O)CC5)nc3C4)o2)n1` [Example 187, N-[(1s,4s)-4-hydroxycyclohexyl]-N′-{(4S,8S)-10-[5-(6-methoxypyridin-2-yl)-1,3-oxazol-2-yl]-4,7,8,9-tetrahydro-5H-4,8-epiminooxocino[5,4-d][1,3]thiazol-2-yl}urea], the “EC150 (the concentration of the compound showing a relative enzyme activity of 150%)” value is 0.64 μm.

On to `C[C@H](CO)NC(=O)Nc1nc2c(s1)[C@@H]1COC[C@H](C2)N1c1nc2cc(F)cc(F)c2o1` [Example 147, N-[(4S,8S)-10-(5,7-difluoro-1,3-benzoxazol-2-yl)-4,7,8,9-tetrahydro-5H-4,8-epiminooxocino[5,4-d][1,3]thiazol-2-yl]-N′-[(2R)-1-hydroxypropan-2-yl]urea], for which the “EC150 (the concentration of the compound showing a relative enzyme activity of 150%)” value was determined as 3.3 μm.

With `O=C(Nc1nc2c(s1)[C@@H]1COC[C@H](C2)N1c1ncc(-c2cccc(OC(F)F)c2)o1)N[C@H]1C[C@H](O)C1` [Example 167, N-[(4S,8S)-10-{5-[3-(difluoromethoxy)phenyl]-1,3-oxazol-2-yl}-4,7,8,9-tetrahydro-5H-4,8-epiminooxocino[5,4-d][1,3]thiazol-2-yl]-N′-[(1r,3S)-3-hydroxycyclobutyl]urea], the “EC150 (the concentration of the compound showing a relative enzyme activity of 150%)” value came out at 0.43 μm.

`O=C(Nc1nc2c(s1)CN(c1nc(C3(C(F)(F)F)CC3)no1)CC2)N[C@H]1C[C@H](O)C1` [Example 97, N-[(1r,3r)-3-hydroxycyclobutyl]-N′-(5-{3-[1-(trifluoromethyl)cyclopropyl]-1,2,4-oxadiazol-5-yl}-4,5,6,7-tetrahydro[1,3]thiazolo[5,4-c]pyridin-2-yl)urea]: the “EC150 (the concentration of the compound showing a relative enzyme activity of 150%)” value amounted to 1.3 μm.

On to `C[C@H](CO)NC(=O)Nc1nc2c(s1)CN(c1nccc(C3CCCOC3)n1)CC2` (stereo partly drawn) [Example 191, N-[(2R)-1-hydroxypropan-2-yl]-N′-{5-[4-(oxan-3-yl)pyrimidin-2-yl]-4,5,6,7-tetrahydro[1,3]thiazolo[5,4-c]pyridin-2-yl}urea], for which the “EC150 (the concentration of the compound showing a relative enzyme activity of 150%)” value came to 1.2 μm.

As to `CCOC(=O)N1CC2Cc3nc(NC(=O)NC)sc3C(C1)N2c1nc(C2(C(F)(F)F)CC2)no1` (centres unmarked) [Example 134, Ethyl 2-[(methylcarbamoyl)amino]-10-{3-[1-(trifluoromethyl)cyclopropyl]-1,2,4-oxadiazol-5-yl}-4,7,8,9-tetrahydro-4,8-epimino[1,3]thiazolo[5,4-d]azocine-6(5H)-carboxylate], the “EC150 (the concentration of the compound showing a relative enzyme activity of 150%)” value came to 3.5 μm.

On to `O=C(NCc1cncnc1)Nc1nc2c(s1)CN(c1nc(C3CCC(F)(F)CC3)no1)CC2` [Example 99, N-{5-[3-(4,4-difluorocyclohexyl)-1,2,4-oxadiazol-5-yl]-4,5,6,7-tetrahydro[1,3]thiazolo[5,4-c]pyridin-2-yl}-N′-[(pyrimidin-5-yl)methyl]urea], for which the “EC150 (the concentration of the compound showing a relative enzyme activity of 150%)” value is listed as 1.1 μm.

Take `C[C@H](CO)NC(=O)Nc1nc2c(s1)CN(c1nc(C3CCC(F)(F)CC3)no1)CC2` [Example 5, N-{5-[3-(4,4-difluorocyclohexyl)-1,2,4-oxadiazol-5-yl]-4,5,6,7-tetrahydro[1,3]thiazolo[5,4-c]pyridin-2-yl}-N′-[(2R)-1-hydroxypropan-2-yl]urea]: the “EC150 (the concentration of the compound showing a relative enzyme activity of 150%)” value turned out to be 1.5 μm.

As to `O=C(NCC1(O)CC1)Nc1nc2c(s1)[C@@H]1COC[C@H](C2)N1c1ncc(-c2cccc(OC(F)F)n2)o1` [Example 179, N-[(4S,8S)-10-{5-[6-(difluoromethoxy)pyridin-2-yl]-1,3-oxazol-2-yl}-4,7,8,9-tetrahydro-5H-4,8-epiminooxocino[5,4-d][1,3]thiazol-2-yl]-N′-[(1-hydroxycyclopropyl)methyl]urea], the “EC150 (the concentration of the compound showing a relative enzyme activity of 150%)” value came out at 0.72 μm.

Take `CC(C)NC(=O)Nc1nc2c(s1)[C@@H]1COC[C@H](C2)N1c1nc2cc(S(C)(=O)=O)ccc2o1` [Example 50, N-{(4S,8S)-10-[5-(methanesulfonyl)-1,3-benzoxazol-2-yl]-4,7,8,9-tetrahydro-5H-4,8-epiminooxocino[5,4-d][1,3]thiazol-2-yl}-N′-propan-2-ylurea]: the “EC150 (the concentration of the compound showing a relative enzyme activity of 150%)” value worked out at 1.5 μm.

As to `CNC(=O)Nc1nc2c(s1)CN(c1nnc(-c3ccc(F)c(C)c3)o1)CC2` [Example 9, N-{5-[5-(4-fluoro-3-methylphenyl)-1,3,4-oxadiazol-2-yl]-4,5,6,7-tetrahydro[1,3]thiazolo[5,4-c]pyridin-2-yl}-N′-methylurea], the “EC150 (the concentration of the compound showing a relative enzyme activity of 150%)” value came to 1.2 μm.

As to `CC(C)OC(=O)N1CC2Cc3nc(NC(=O)NC4CCOCC4)sc3C(C1)N2c1nc(-c2ccc(F)cc2)no1` (centres unmarked) [Example 143, Propan-2-yl-10-[3-(4-fluorophenyl)-1,2,4-oxadiazol-5-yl]-2-{[(oxan-4-yl)carbamoyl]amino}-4,7,8,9-tetrahydro-4,8-epimino[1,3]thiazolo[5,4-d]azocine-6(5H)-carboxylate], the “EC150 (the concentration of the compound showing a relative enzyme activity of 150%)” value amounted to 0.62 μm.

On to `CNC(=O)Nc1nc2c(s1)C1CN(C(=O)OC)CC(C2)N1c1nc2cc(OC)ccc2o1` (centres unmarked) [Example 141, Methyl 10-(5-methoxy-1,3-benzoxazol-2-yl)-2-[(methylcarbamoyl)amino]-4,7,8,9-tetrahydro-4,8-epimino[1,3]thiazolo[5,4-d]azocine-6(5H)-carboxylate], for which the “EC150 (the concentration of the compound showing a relative enzyme activity of 150%)” value is recorded as 0.58 μm.
